Test results published in patent publication US8263565B2, “Nanoemulsion comprising metabolites of ginseng saponin as an active component and a method for preparing the same, and a skin-care composition for anti-aging containing the same” (Amorepacific Corporation, priority 2002, dated 2012).

Test system: Guinea pig's skin
Experiment: Skin penetration with Frantz cell, HPLC determination
Type: in vitro ADME
Experimental: Skin penetration was evaluated for Guinea pig's skin with Frantz cell. Before test, abdominal part, a piece of skin as large as 1 cm^2 square was excised. The excised skin was mounted on a Frantz cell with the diameter of 0.9 cm and fixed with clamp. 0.5 ml of test sample (in case of Examples 1˜9 and C. Examples 1˜6, 0.05 ml of sample and distilled water; and in case of Formulations 1˜30 and C. Formulations 1˜15, 0.5 ml of sample only) was placed on one side of skin (donor side). The other side (receiver side) was filled with mixture of distilled water and ethanol (4:1 weight ratio). Test was performed at 32° C., which is skin temperature. Test solvent was sampled at predetermined time intervals from the receiver side, and the amounts of penetrated compound K, ginsenoside F1 and compound Y were determined by HPLC system. The data were indicated in penetrated amount per applied concentration (μg/cm^2/wt %).
In case of purified ginseng saponin, the amount of penetrated saponin was determined. Also, in case of Bio GF1K, the amounts of penetrated compound K, ginsenoside F1 and compound Y were determined and total penetrated amounts were calculated by sum of each peak.
<HPLC Analytic Condition> • Column: C18 (ODS) • Solvent Flow: 1 ml/min • Detection UV: 203 nm • Sample test concentration 5 mg/ml • Sample injection amount: 10 μg • Eluent: Gradient condition • A: Acetonitrile/D.I. water=15/85 • B: Acetonitrile/D.I. water=80/20
<Solvent Gradient Condition>

## CC(C)=CCC[C@](C)(O[C@@H]1O[C@H](CO)[C@@H](O)[C@H](O)[C@H]1O)[C@H]1CC[C@]2(C)[C@@H]1[C@H](O)C[C@@H]1[C@@]3(C)CC[C@H](O)C(C)(C)[C@@H]3CC[C@]12C [compound K, 20-O-β-D-glucopyranosyl-20(S)-protopanaxadiol]
  skin penetration (comparison in words): superior effects on skin penetration to purified ginseng saponin

## CC(C)=CCC[C@](C)(O[C@@H]1O[C@H](CO[C@@H]2OC[C@H](O)[C@H](O)[C@H]2O)[C@@H](O)[C@H](O)[C@H]1O)[C@H]1CC[C@]2(C)[C@@H]1[C@H](O)C[C@@H]1[C@@]3(C)CC[C@H](O)C(C)(C)[C@@H]3CC[C@]12C [compound Y, 20-O-[α-L-arabinopyranosyl(1→6)-β-D-glucopyranosyl]-20(S)-protopanaxadiol]
  skin penetration (comparison in words): superior effects on skin penetration to purified ginseng saponin

## CC(C)=CCC[C@](C)(O[C@@H]1O[C@H](CO)[C@@H](O)[C@H](O)[C@H]1O)[C@H]1CC[C@]2(C)[C@@H]1[C@H](O)C[C@@H]1[C@@]3(C)CC[C@H](O)C(C)(C)[C@@H]3[C@@H](O)C[C@]12C [ginsenoside F1, 20-O-β-D-glucopyranosyl-20(S)-protopanaxatriol]
  skin penetration (comparison in words): superior effects on skin penetration to purified ginseng saponin
